Experimental findings from patent publication US10112955B2, “Isoindoline, azaisoindoline, dihydroindenone and dihydroazaindenone inhibitors of Mnk1 and Mnk2” (eFFECTOR THERAPEUTICS, INC., priority 2015, dated 2018) are described below.

A value given as a limit tells only on which side of the number the result lay.

In one data set the target is MNK1 (Homo sapiens (Human), UniProt Q9BUB5). The data set is described as follows: MNK Biochemical Enzymatic Assay (ADP-Glo), MNK1. The settings on record: 10 nM recombinant MNK1, 100 μM substrate peptide, 300 μM ATP; read-out: IC50 Mnk1. The protocol: (§1) Compounds are screened for MNK inhibition using the ADP-Glo kinase assay kit (Promega, catalogue No. V9101). All kinase reactions are performed in Reaction Buffer E (15 mM HEPES pH7.4, 20 mM NaCl, 1 mM EGTA, 10 mM MgCl2, 0.1 mg/ml BGG, and 0.02% Tween-20). […] Final DMSO concentration in each reaction is 1%.
MNK1, sequence (Q9BUB5 whole entry): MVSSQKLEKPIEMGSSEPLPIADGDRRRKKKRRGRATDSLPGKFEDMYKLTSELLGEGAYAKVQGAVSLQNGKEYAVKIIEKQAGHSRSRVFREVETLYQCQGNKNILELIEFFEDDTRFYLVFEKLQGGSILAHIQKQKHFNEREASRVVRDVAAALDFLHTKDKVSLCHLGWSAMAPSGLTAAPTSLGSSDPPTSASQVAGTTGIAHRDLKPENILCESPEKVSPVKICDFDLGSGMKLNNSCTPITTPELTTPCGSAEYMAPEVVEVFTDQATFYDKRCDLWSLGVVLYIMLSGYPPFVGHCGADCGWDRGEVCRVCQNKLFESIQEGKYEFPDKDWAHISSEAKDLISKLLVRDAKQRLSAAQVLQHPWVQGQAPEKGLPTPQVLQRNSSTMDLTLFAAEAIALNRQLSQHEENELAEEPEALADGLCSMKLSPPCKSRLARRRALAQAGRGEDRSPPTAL
(§2) Kinase reactions are carried out in 96-well half-area white flat-bottom polystyrene plates in a final volume of 25 μl. MNK1/2 enzymes are pre-incubated with compound and peptide substrate for 5 minutes prior to the addition of ATP. After the addition of ATP, kinase reactions are incubated at room temperature for 40 minutes. Reactions are subsequently stopped by the addition of 25 μl of ADP-Glo Reagent and incubating for an additional 40 minutes. The final luminescent signal used for kinase activity readout is produced by the addition of 45 μl of Kinase Detection Reagent (ADP-Glo kit, Promega) and incubating for 40 minutes.

In another data set the target is MNK2 (Homo sapiens (Human), UniProt Q9HBH9). The data set is described as follows: MNK Biochemical Enzymatic Assay (ADP-Glo), MNK2. The conditions noted are these: 3 nM recombinant MNK2, 50 μM substrate peptide, 10 μM ATP. The protocol: as §1, §2
MNK2, sequence (Q9HBH9 whole entry): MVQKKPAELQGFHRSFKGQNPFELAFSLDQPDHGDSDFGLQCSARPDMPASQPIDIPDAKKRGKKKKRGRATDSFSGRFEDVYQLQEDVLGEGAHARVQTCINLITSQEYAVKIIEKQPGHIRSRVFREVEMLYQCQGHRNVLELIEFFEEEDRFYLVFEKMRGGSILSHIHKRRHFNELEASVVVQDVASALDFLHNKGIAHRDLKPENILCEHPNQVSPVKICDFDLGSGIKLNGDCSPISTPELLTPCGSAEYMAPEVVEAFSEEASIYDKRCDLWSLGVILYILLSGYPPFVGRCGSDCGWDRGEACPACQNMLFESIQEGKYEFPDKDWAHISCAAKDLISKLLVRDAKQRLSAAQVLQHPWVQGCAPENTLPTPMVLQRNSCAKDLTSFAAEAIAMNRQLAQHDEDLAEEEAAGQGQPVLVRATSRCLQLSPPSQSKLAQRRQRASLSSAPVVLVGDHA
Another data set deals with Phosphorylated eIF4E. Put plainly: peIF4E Signaling Cellular Assay (CisBio peIF4E HTRF). It is filed as cell-based. The settings on record: cells incubated with compound for 2 hrs at 37° C., 12-point curve. Put shortly:
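Phospho-eIF4E measured by HTRF (665 and 620 nm ratio) after overnight antibody incubation of lysates from cells exposed 2 h at 37° C to 3-fold compound dilutions. IC50 fitted by nonlinear regression of percent inhibition.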

Data set [1] is described as follows: Pharmacokinetics, single oral gavage administration. Type of data set: in vivo. The conditions noted are these: male Sprague Dawley rats, single oral gavage 10 mg/kg, N = 3/group (Cpd. 71 N = 2), formulation 10% NMP/90% PEG400 (Cpd. 57: 10% DMA/90% PEG300); for AUC(0-inf) / Cmax / Tmax / half-life: rat, plasma. The protocol: (§3) Groups of Balb/c mice or Sprague-Dawley rats (n≥3 per dose group) are administered single doses of test compound. Compounds are formulated either as solutions in 10% N-methylpyrrolidone, 90% polyethyleneglycol 400 or as suspensions in 0.5% methylcellulose in water for oral gavage administration at a nominal dose level of 10 mg/kg. Compounds are formulated in 10% dimethylisosorbide, 15% ethanol, 35% propylene glycol, and 40% saline (or 40% D5W) for intravenous administration at a nominal dose level of 1 mg/kg. For intravenously dosed animals, blood samples are collected at 0.083, 0.25, 0.5, 1, 2, 4, 8, and 24 h post dose. For orally dosed animals, blood samples are collected at 0.25, 0.5, 1, 2, 4, 8, and 24 h post dose. Blood samples are collected from mice either serially via submandibular vein (approximately 0.1 mL each) or terminally via cardiac puncture (approximately 0.5 mL each). Blood samples are collected serially from rats via jugular vein catheter (approximately 0.2 mL each). Each blood sample is collected into a tube that is chilled and contains potassium EDTA as the anticoagulant. Plasma is separated and stored at approximately −80 C until analysis. Following protein precipitation with acetonitrile containing an internal standard, plasma samples are analyzed using a liquid chromatography/high-resolution mass spectrometry (LC-HRMS) method to determine plasma concentrations. Plasma concentration versus time data are subjected to noncompartmental pharmacokinetic analysis using Phoenix™ Winnonlin® (Certara LP) to determine pharmacokinetic parameters, including Area Under the Curve (AUC), Clearance (Cl), Volume of Distribution at Steady-State (Vss), and terminal half-life (T1/2). Data from orally and intravenously dose are highlighted in Tables 3 and 4, respectively.

Data set [2] can be described thus: Pharmacokinetics, single intravenous bolus administration. It is filed as in vivo. The conditions noted are these: rat, plasma, male Sprague Dawley rats, single intravenous bolus 1 mg/kg, N = 3/group, formulation 10% NMP/15% EtOH/35% PEG400/40% D5W (Cpd. 57: 10% DMA/15% EtOH/35% PEG400/40% D5W); for half-life: read-out: T½ (converted); for Vd: read-out: Vss. The protocol:
as §3, with “Compounds are formulated in 10% dimethylisosorbide, 15% ethanol, 35% propylene glycol, and 40% saline (or 40% D5W) for intravenous administration at a nominal dose level of 1 mg/kg.” left out

Regarding `CC1Cc2cc(Nc3ccncn3)ccc2C(=O)N1` (centres unmarked) [Cpd. No. 23, 3-methyl-6-(pyrimidin-4-ylamino)-3,4-dihydroisoquinolin-1(2H)-one], the IC50 was 0.1 to 10 µM at MNK1, 0.01 to 0.1 µM on MNK2 and 1 to 100 µM in the data set with Phosphorylated eIF4E.
On the same counts, the results for `CC1NC(=O)c2ccc(Nc3ccnc(NC(=O)C4CC4)c3)cc21` (centres unmarked) [Cpd. No. 24, N-(4-((3-methyl-1-oxoisoindolin-5-yl)amino)pyridin-2-yl) cyclopropane carboxamide] are below 0.01 µM, 0.1 to 10 µM and 0.05 to 1 µM.
For `Cc1cc(Nc2ccncn2)cc2c1C(=O)NC2C` (centres unmarked) [Cpd. No. 33, 3,7-dimethyl-5-(pyrimidin-4-ylamino)isoindolin-1-one] the same measures were 0.01 to 0.1 µM, 0.01 to 0.1 µM and 1 to 100 µM.
On the same counts, the results for `CC1NC(=O)c2c(Cl)cc(Nc3ccncn3)cc21` (centres unmarked) [Cpd. No. 35, 7-chloro-3-methyl-5-(pyrimidin-4-ylamino)isoindolin-1-one] are below 0.01 µM, below 0.01 µM and 0.05 to 1 µM.
With `CC1(C)NC(=O)c2c(Cl)cc(Nc3ccncn3)cc21` [Cpd. No. 36, 7-chloro-3,3-dimethyl-5-(pyrimidin-4-ylamino)isoindolin-1-one], the IC50 at MNK1 is below 0.01 µM; at MNK2 it was below 0.01 µM; in the data set on Phosphorylated eIF4E, 0.05 to 1 µM.
In the case of `CC1NC(=O)c2ccc(Nc3ncnc4c3OCCN4)cc21` (centres unmarked) [Cpd. No. 38, 5-(7,8-dihydro-6H-pyrimido[5,4-b][1,4]oxazin-4-ylamino)-3-methyl-isoindolin-1-one], the IC50 is 0.01 to 0.1 µM at MNK1, 0.1 to 10 µM at MNK2 and 1 to 100 µM in the data set with Phosphorylated eIF4E.
On the same counts, the results for `CC1NC(=O)c2ccc(Nc3ncnc4c3CCN4)cc21` (centres unmarked) [Cpd. No. 39, 5-(6,7-dihydro-5H-pyrrolo[2,3-d]pyrimidin-4-ylamino)-3-methyl-isoindolin-1-one] are 0.01 to 0.1 µM, 0.1 to 10 µM and 1 to 100 µM.
On the same counts, the results for `CC1NC(=O)c2cnc(Nc3ccnc(NC(=O)C4CC4)c3)cc21` (centres unmarked) [Cpd. No. 42, N-(4-((1-methyl-3-oxo-2,3-dihydro-1H-pyrrolo[3,4-c]pyridin-6-yl)amino)pyridin-2-yl)cyclopropanecarboxamide] are below 0.01 µM, below 0.01 µM and 1 to 100 µM.
As to `CC1(C)NC(=O)c2c(Cl)cc(Nc3cc(N)ncn3)cc21` [Cpd. No. 43, 5-((6-aminopyrimidin-4-yl)amino)-7-chloro-3,3-dimethylisoindolin-1-one], the IC50 at MNK1 is below 0.01 µM; on MNK2, below 0.01 µM; in the data set with Phosphorylated eIF4E, below 0.05 µM.
As for `Cc1cc(Nc2ncnc(N)c2C)cc2c1C(=O)NC21CCCCC1` [Cpd. No. 55, 6′-((6-amino-5-methylpyrimidin-4-yl)amino)-4′-methylspiro[cyclohexane-1,1′-isoindolin]-3′-one], the IC50 at MNK2 lay in the range of 0.01 to 0.1 µM. The IC50 with Phosphorylated eIF4E is below 0.05 µM. In data set [1], the F was determined as 25.0%, the AUC(0-inf) came out at 2650 ng·h/mL, the peak level (Cmax) was 425 ng/mL and the Tmax was found to be 4 h. Further, the half-life in data set [1] was 2.59 h. In addition, in data set [2], the AUC(0-inf) is 1060 ng·h/mL, the clearance was determined as 16.6 mL/min/kg, the half-life is 7.34 h and the Vd amounted to 6.56 L/kg.
On to `COc1c(N)ncnc1Nc1cc(C)c2c(c1)C1(CCCCC1)NC2=O` [Cpd. No. 57, 6′-((6-amino-5-methoxypyrimidin-4-yl)amino)-4′-methylspiro[cyclohexane-1,1′-isoindolin]-3′-one], for which the IC50 on MNK2 is below 0.01 µM. Moreover, the half-inhibitory concentration (IC50) in the data set with Phosphorylated eIF4E is below 0.05 µM. For the same compound, in data set [1], the F was 14.5%, the AUC(0-inf) is 2490 ng·h/mL, the Cmax came out at 584 ng/mL and the Tmax amounted to 0.833 h. Further, in data set [1], the half-life is 3.27 h. In addition, in data set [2], the total exposure AUC(0-inf) came out at 1720 ng·h/mL, the clearance turned out to be 11.1 mL/min/kg, the half-life was 7.78 h and the Vd amounted to 3.46 L/kg.
For `Cc1cc(Nc2ncnc(N)c2Cl)cc2c1C(=O)NC21CCCCC1` [Cpd. No. 58, 6′-((6-amino-5-chloropyrimidin-4-yl)amino)-4′-methylspiro[cyclohexane-1,1′-isoindolin]-3′-one], the half-maximal inhibitory concentration (IC50) on MNK2 was below 0.01 µM. In addition, the IC50 with Phosphorylated eIF4E is below 0.05 µM. In data set [1], the F amounted to 27.9%, the AUC(0-inf) amounted to 1370 ng·h/mL, the Cmax amounted to 417 ng/mL and the Tmax worked out at 0.417 h. The half-life in data set [1] is 9.15 h. Also, in data set [2], the AUC(0-inf) was 491 ng·h/mL, the clearance worked out at 35.3 mL/min/kg, the half-life is 9.44 h and the Vd is 13.2 L/kg.
`Cc1cc(Nc2ncnc(N)c2C)nc2c1C(=O)NC21CCCCC1` [Cpd. No. 71, 2′-((6-amino-5-methylpyrimidin-4-yl)amino)-4′-methylspiro[cyclohexane-1,7′-pyrrolo[3,4-b]pyridin]-5′(6′H)-one]: the IC50 in the data set on Phosphorylated eIF4E was below 0.05 µM. Also, in data set [1], the F was found to be 63.9%, the AUC(0-inf) was determined as 5660 ng·h/mL, the Cmax was 1140 ng/mL and the time of peak concentration (Tmax) amounted to 0.5 h. For the same compound, in data set [1], the half-life is 2.9 h. For the same compound, in data set [2], the AUC(0-inf) is 886 ng·h/mL, the clearance amounted to 19.1 mL/min/kg, the half-life is 4.15 h and the Vd amounted to 3.9 L/kg.
Regarding `COc1c(N)ncnc1Nc1cc(C)c2c(n1)C1(CCCCC1)NC2=O` [Cpd. No. 72, 2′-((6-amino-5-methoxypyrimidin-4-yl)amino)-4′-methylspiro[cyclohexane-1,7′-pyrrolo[3,4-b]pyridin]-5′(6′H)-one], the half-inhibitory concentration (IC50) in the data set on Phosphorylated eIF4E was below 0.05 µM. In data set [1], the F was 24.2%, the AUC(0-inf) is 2740 ng·h/mL, the concentration peaked (Cmax) at 1380 ng/mL and the Tmax turned out to be 0.667 h. The half-life in data set [1] is 2.75 h. Moreover, in data set [2], the AUC(0-inf) was 1130 ng·h/mL, the clearance was found to be 14.8 mL/min/kg, the half-life is 8.48 h and the Vd came out at 4.59 L/kg.
